Experimental data reported in patent EP0378671B1, “INSULINOMIMETIC AND INSULIN RECEPTOR BINDING SITE PEPTIDES” (CITY OF HOPE, priority 1988, dated 1997).

Tested on: isolated rat adipocytes
Assay: Lipogenesis assay: incorporation of 3-[3H] glucose into lipids
Format: cell-based
Conditions: 2 hours at 37°C, compared with insulin and basal (Figure 10)
Procedure: The lipogenesis assay was conducted according to Smal, et al., J.Biol.Chem. 262:11071-11079 (1987). Dissected epididymal and retroperitoneal fat pads were digested under vigorous shaking at 37°C for 30 min with collagenase (1.0 mg/ml) in Krebs-Ringer-Heps (KRH) buffer, pH 7.4, 35 mg/ml dialyzed bovine serum albumin (BSA), 0.27 mM glucose. After filtration on cheesecloth and 4 washes in KRH with 10 mg/ml BSA, the adipocytes were preincubated for 4 hours at 37°C in the same buffer.
The lipogenesis assay was performed in triplicate in 6 ml polyethylene vials by adding successively 400 µl of adipocyte suspension (80 X l0^3 cells/ml), 50 µl of KRH buffer pH 7.4 (1% BSA, 0.27 mM glucose) without hormone (basal lipogenesis) or with insulin or receptor-derived peptides at the indicated concentrations, and 50 µl D-[3-^3H]-glucose in a total volume of 0.5 ml. The vials were incubated 2 hours at 37°C under gentle shaking. […]

insulin receptor sequence 81-91: peptide with insulin receptor sequence 81-91 (LIMITDYLLLF; UniProt P06213 81-91, looked up, fragment)
stimulation of lipogenesis: totally inactive | stimulation of lipogenesis (listed as insulin receptor sequence 81 to 91): not stimulated above basal
